In PubChem BioAssay (NCI):
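The compound was tested at five concentrations on cells cultured in 96-well plates, with a 48-hour exposure period. GI50 is the concentration that inhibits growth by half. The concentration for full growth arrest is given as TGI.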

Columns and labels:
Assay in all cases: NCI-60 cell line screen, 48 h
[1] = tested on: UO-31 renal
[2] = tested on: MDA-MB-435
[3] = tested on: A498 renal
[4] = tested on: OVCAR-5 ovarian
[5] = tested on: HS 578T breast
[6] = tested on: 786-0 renal
[7] = tested on: TK-10 renal
[8] = tested on: RPMI-8226 leukemia
[9] = tested on: M14 melanoma
[10] = tested on: MALME-3M melanoma
[11] = tested on: RXF 393 renal
[12] = tested on: ACHN renal
[13] = tested on: SK-MEL-5 melanoma
[14] = tested on: SR leukemia
[15] = tested on: HOP-62 NSCLC
[16] = tested on: NCI-H522 lung
[17] = tested on: NCI-H226 lung
[18] = tested on: SNB-19 CNS
[19] = tested on: COLO 205 colon
[20] = tested on: NCI-H23 lung
[21] = tested on: HCC-2998 colon
[22] = tested on: PC-3 prostate
[23] = tested on: DU-145 prostate
[24] = tested on: CCRF-CEM leukemia
[25] = tested on: UACC-62 melanoma
[26] = tested on: HL-60(TB) leukemia
[27] = tested on: T-47D breast
[28] = tested on: A549 NSCLC
[29] = tested on: MOLT-4 leukemia
[30] = tested on: OVCAR-3 ovarian
[31] = tested on: NCI-H460 lung
[32] = tested on: MCF7 breast
[33] = tested on: SK-OV-3 ovarian
[34] = tested on: SN12C renal
[35] = tested on: BT-549 breast
[36] = tested on: HOP-92 NSCLC
[37] = tested on: K-562 leukemia
[38] = tested on: LOX IMVI melanoma
[39] = tested on: SNB-75 CNS
[40] = tested on: U251 CNS
[41] = tested on: SF-295 CNS
[42] = tested on: SK-MEL-28 melanoma
[43] = tested on: EKVX NSCLC
[44] = tested on: KM12 colon
[45] = tested on: UACC-257 melanoma
[46] = tested on: OVCAR-4 ovarian
[47] = tested on: HT29 colon
[48] = tested on: SF-268 CNS
[49] = tested on: SF-539 CNS
[50] = tested on: HCT-15 colon
[51] = tested on: SW-620 colon
[52] = tested on: IGROV1 ovarian
[53] = tested on: MDA-MB-231 breast
[54] = tested on: OVCAR-8 ovarian
[55] = tested on: CAKI-1 renal
[56] = tested on: SK-MEL-2 melanoma
[57] = tested on: HCT-116 colon
[58] = tested on: NCI/ADR-RES ovarian

Q: Which results are given for `CCOC(=O)c1c(CN2CCCCC2)nc2ccc(Cl)cc2c1-c1ccccc1`?
A: GI50 [1]: 20.6 µM; TGI [1]: 53.9 µM; GI50 [2]: 35.1 µM; TGI [2]: > 100 µM; GI50 [3]: 18.3 µM; TGI [3]: 37.7 µM; GI50 [4]: 17.6 µM; TGI [4]: 36.6 µM; GI50 [5]: 27.1 µM; TGI [5]: 75.1 µM; GI50 [6]: 19.2 µM; TGI [6]: 41.8 µM; GI50 [7]: 42.7 µM; TGI [7]: > 100 µM; GI50 [8]: 20.4 µM; TGI [8]: 46.2 µM; GI50 [9]: 24.6 µM; TGI [9]: 72.7 µM; GI50 [10]: 25.1 µM; TGI [10]: 61.9 µM; GI50 [11]: 21.4 µM; TGI [11]: 50 µM; GI50 [12]: 16.9 µM; TGI [12]: 35 µM; GI50 [13]: 17.4 µM; TGI [13]: 32.8 µM; GI50 [14]: 15.7 µM; TGI [14]: 43.4 µM; GI50 [15]: 23.9 µM; TGI [15]: 56.5 µM; GI50 [16]: 19.2 µM; TGI [16]: 53 µM; GI50 [17]: 20.7 µM; TGI [17]: 40.4 µM; GI50 [18]: 21.8 µM; TGI [18]: 48.4 µM; GI50 [19]: 22.9 µM; TGI [19]: 58.3 µM; GI50 [20]: 24.2 µM; TGI [20]: 64.1 µM; GI50 [21]: 19.1 µM; TGI [21]: 35.8 µM; GI50 [22]: 23.8 µM; TGI [22]: 93.7 µM; GI50 [23]: 32.5 µM; TGI [23]: > 100 µM; GI50 [24]: 7.6 µM; TGI [24]: 36.6 µM; GI50 [25]: 17.2 µM; TGI [25]: 38.1 µM; GI50 [26]: 18.1 µM; TGI [26]: 43.4 µM; GI50 [27]: 17.1 µM; TGI [27]: 49.1 µM; GI50 [28]: 29.6 µM; TGI [28]: > 100 µM; GI50 [29]: 6.5 µM; TGI [29]: 27.9 µM; GI50 [30]: 17.7 µM; TGI [30]: 38.1 µM; GI50 [31]: 20 µM; TGI [31]: 43.2 µM; GI50 [32]: 18.6 µM; TGI [32]: 41.2 µM; GI50 [33]: 23.1 µM; TGI [33]: 49 µM; GI50 [34]: 20.3 µM; TGI [34]: 45 µM; GI50 [35]: 39.5 µM; TGI [35]: > 100 µM; GI50 [36]: 15.8 µM; TGI [36]: 39.9 µM; GI50 [37]: 25.6 µM; TGI [37]: 92.7 µM; GI50 [38]: 20 µM; TGI [38]: 44.2 µM; GI50 [39]: 47.7 µM; TGI [39]: > 100 µM; GI50 [40]: 20.3 µM; TGI [40]: 41.2 µM; GI50 [41]: 31.5 µM; TGI [41]: 88 µM; GI50 [42]: 30.4 µM; TGI [42]: 88.3 µM; GI50 [43]: 25.2 µM; TGI [43]: 69.2 µM; GI50 [44]: 27.4 µM; TGI [44]: 78.3 µM; GI50 [45]: 22.4 µM; TGI [45]: 56.5 µM; GI50 [46]: 37.7 µM; TGI [46]: > 100 µM; GI50 [47]: 18.8 µM; TGI [47]: 54.2 µM; GI50 [48]: 23.2 µM; TGI [48]: 55.3 µM; GI50 [49]: 26.7 µM; TGI [49]: 66.2 µM; GI50 [50]: 21.4 µM; TGI [50]: 47.9 µM; GI50 [51]: 18.5 µM; TGI [51]: 39.2 µM; GI50 [52]: 24 µM; TGI [52]: > 100 µM; GI50 [53]: 15.9 µM; TGI [53]: 35 µM; GI50 [54]: 35.4 µM; TGI [54]: > 100 µM; GI50 [55]: 24.7 µM; TGI [55]: 72.3 µM; GI50 [56]: 18.9 µM; TGI [56]: 40.6 µM; GI50 [57]: 15.6 µM; TGI [57]: 37 µM; GI50 [58]: 19.6 µM; TGI [58]: 58.2 µM
